Values after ≈ are worked out from the molar mass of the structure shown. Where two headings read alike, the source gives them in different places.

Data set [1] is described as follows: CLND kinetic solubility assay. Type of data set: physicochemical. The following applies: phosphate buffered saline, pH 7.4, aqueous buffer, kinetic from dmso stock; Measured; read-out: Aq Sol. Here is the method:
5 µL of 10 mM DMSO stock solution was diluted to 100 µL with pH 7.4 phosphate buffered saline, equilibrated for 1 hour at room temperature, filtered through Millipore MultiscreenHTS-PCF filter plates (MSSL BPC). The filtrate was quantified by suitably calibrated flow injection Chemi-Luminescent Nitrogen Detection.

The nature of data set [2]: GSK in-house artificial membrane permeability assay. Type of data set: in vitro ADME. The following applies: PAMPA, pH 7.4, Measured. The procedure: 250 µL and 100 µL 50 mM phosphate buffer pH 7.4 with 0.5% encapsin was applied to the donor and receiver compartments, respectively. 2.5 µL of a 10 mM stock solution of compound in DMSO was added to the donor compartment. The assay was incubated at RT for 3 hours. […] The permeability (logPapp) measures how fast molecules pass through the lipid membrane is expressed in nm/s.

For another data set, the target named is Cytochrome P450 (CYP450) (Homo sapiens, UniProt P08684). The data set can be described thus: Cytochrome P450 inhibition profile. The following applies: Measured. Type of data set: in vitro ADME. The procedure:
The P450 inhibition profile of the inhibitors was determined as previously described.

The target in a further data set is T1, P38A (Homo sapiens, UniProt Q16539).
T1 construct: variant as stated: P38A
T1 sequence (Q16539 2-360): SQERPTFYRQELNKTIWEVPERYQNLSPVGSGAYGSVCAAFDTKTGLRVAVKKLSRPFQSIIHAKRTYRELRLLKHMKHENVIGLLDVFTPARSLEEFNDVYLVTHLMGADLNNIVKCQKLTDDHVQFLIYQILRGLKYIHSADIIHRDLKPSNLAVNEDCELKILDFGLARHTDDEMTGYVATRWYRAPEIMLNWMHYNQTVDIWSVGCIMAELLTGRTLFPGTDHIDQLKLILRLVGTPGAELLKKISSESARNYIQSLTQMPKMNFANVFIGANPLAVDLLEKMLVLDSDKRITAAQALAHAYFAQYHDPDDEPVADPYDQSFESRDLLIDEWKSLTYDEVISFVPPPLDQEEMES
Description: biochemical. The text has this:
(§1) These kinases were chosen for general selectivity screening owing to their broad representation of the human kinome.

Another data set deals with JNK1 (Homo sapiens, UniProt P45983). The data set can be described thus: Human kinase selectivity screening: JNK1. Type of data set: biochemical. The following applies: read-out: JNK1 pIC50 values (converted).
Sequence of JNK1 (P45983 whole entry): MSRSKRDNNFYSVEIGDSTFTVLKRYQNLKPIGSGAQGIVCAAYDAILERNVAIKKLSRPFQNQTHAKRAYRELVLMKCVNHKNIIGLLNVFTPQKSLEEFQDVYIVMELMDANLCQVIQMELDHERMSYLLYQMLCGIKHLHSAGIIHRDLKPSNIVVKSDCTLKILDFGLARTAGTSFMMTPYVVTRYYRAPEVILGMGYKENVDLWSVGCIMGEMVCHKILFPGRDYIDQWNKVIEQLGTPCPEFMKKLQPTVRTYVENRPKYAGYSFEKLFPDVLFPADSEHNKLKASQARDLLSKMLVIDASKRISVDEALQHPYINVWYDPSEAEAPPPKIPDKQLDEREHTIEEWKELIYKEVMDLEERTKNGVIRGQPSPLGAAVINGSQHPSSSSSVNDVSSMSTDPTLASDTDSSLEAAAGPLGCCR
Excerpt: as §1

For the next data set, the target named is T2, ITK (Homo sapiens, UniProt Q08881).
T2 sequence (Q08881 1-620): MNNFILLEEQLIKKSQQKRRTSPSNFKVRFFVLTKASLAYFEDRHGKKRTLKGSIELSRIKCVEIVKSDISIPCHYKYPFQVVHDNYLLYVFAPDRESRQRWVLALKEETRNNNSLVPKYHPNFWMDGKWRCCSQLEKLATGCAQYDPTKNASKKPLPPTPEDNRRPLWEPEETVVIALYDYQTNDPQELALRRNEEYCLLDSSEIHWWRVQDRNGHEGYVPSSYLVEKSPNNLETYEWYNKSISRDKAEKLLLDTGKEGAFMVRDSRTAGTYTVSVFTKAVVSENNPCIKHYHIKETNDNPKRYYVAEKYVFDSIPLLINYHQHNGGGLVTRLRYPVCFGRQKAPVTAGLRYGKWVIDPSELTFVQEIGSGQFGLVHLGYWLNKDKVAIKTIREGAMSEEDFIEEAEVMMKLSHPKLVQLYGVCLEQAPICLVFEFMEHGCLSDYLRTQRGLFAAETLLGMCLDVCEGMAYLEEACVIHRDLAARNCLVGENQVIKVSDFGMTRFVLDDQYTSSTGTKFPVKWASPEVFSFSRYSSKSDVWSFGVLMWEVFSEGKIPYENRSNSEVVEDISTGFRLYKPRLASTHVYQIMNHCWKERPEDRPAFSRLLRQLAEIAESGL
Description: Human kinase selectivity screening: ITK. The conditions noted are these: read-out: ITK pIC50 values (converted). The class given is biochemical.
Excerpt: as §1

For the next data set, the target named is LCK (Homo sapiens, UniProt P06239). Description: Human kinase selectivity screening: LCK. The class given is biochemical. The following applies: read-out: LCK pIC50 values (converted).
Excerpt: as §1

Another data set concerns the target T3, IKK2 (Homo sapiens, UniProt O14920).
T3 sequence (O14920 1-756): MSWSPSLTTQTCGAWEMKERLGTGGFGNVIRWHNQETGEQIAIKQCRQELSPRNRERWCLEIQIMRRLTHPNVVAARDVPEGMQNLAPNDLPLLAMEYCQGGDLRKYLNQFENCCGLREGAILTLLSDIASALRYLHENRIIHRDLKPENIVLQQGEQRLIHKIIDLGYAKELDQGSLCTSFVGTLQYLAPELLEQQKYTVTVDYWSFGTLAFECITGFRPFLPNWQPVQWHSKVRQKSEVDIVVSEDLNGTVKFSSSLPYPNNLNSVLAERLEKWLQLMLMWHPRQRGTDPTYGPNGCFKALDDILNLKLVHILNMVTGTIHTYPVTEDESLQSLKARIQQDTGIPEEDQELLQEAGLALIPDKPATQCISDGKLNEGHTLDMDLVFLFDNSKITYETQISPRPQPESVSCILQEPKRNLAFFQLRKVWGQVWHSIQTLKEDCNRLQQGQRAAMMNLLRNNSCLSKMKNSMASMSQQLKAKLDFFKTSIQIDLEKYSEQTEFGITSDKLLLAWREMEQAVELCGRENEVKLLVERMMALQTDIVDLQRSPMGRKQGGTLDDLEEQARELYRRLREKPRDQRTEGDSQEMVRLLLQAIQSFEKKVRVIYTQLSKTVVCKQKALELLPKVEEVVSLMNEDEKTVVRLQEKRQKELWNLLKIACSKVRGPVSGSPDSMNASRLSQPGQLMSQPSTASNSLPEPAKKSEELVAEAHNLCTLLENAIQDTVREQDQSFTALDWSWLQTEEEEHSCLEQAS
Description: Human kinase selectivity screening: IKK2. The conditions noted are these: read-out: IKK2 pIC50 values (converted). The class given is biochemical.
Excerpt: as §1

Another data set addresses ROCK1 (Homo sapiens, UniProt Q13464). The data set can be described thus: Human kinase selectivity screening: ROCK1. The conditions noted are these: read-out: ROCK1 pIC50 values (converted). The class given is biochemical.
Excerpt: as §1

The next data set addresses AURB (Homo sapiens, UniProt Q96GD4). The data set can be described thus: Human kinase selectivity screening: AURB. The following applies: read-out: AURB pIC50 values (converted). Type of data set: biochemical.
Excerpt: as §1

For the next data set, the target named is PI3KA (Homo sapiens, UniProt P42336). The data set can be described thus: Human kinase selectivity screening: PI3KA. Type of data set: biochemical. The conditions noted are these: read-out: PI3KA pIC50 values (converted).
Excerpt: as §1

The target of a further data set is JAK2 (Homo sapiens, UniProt O60674). Description: Human kinase selectivity screening: JAK2. Type of data set: biochemical. The conditions noted are these: read-out: JAK2 pIC50 values (converted).
Sequence of JAK2 (O60674 whole entry): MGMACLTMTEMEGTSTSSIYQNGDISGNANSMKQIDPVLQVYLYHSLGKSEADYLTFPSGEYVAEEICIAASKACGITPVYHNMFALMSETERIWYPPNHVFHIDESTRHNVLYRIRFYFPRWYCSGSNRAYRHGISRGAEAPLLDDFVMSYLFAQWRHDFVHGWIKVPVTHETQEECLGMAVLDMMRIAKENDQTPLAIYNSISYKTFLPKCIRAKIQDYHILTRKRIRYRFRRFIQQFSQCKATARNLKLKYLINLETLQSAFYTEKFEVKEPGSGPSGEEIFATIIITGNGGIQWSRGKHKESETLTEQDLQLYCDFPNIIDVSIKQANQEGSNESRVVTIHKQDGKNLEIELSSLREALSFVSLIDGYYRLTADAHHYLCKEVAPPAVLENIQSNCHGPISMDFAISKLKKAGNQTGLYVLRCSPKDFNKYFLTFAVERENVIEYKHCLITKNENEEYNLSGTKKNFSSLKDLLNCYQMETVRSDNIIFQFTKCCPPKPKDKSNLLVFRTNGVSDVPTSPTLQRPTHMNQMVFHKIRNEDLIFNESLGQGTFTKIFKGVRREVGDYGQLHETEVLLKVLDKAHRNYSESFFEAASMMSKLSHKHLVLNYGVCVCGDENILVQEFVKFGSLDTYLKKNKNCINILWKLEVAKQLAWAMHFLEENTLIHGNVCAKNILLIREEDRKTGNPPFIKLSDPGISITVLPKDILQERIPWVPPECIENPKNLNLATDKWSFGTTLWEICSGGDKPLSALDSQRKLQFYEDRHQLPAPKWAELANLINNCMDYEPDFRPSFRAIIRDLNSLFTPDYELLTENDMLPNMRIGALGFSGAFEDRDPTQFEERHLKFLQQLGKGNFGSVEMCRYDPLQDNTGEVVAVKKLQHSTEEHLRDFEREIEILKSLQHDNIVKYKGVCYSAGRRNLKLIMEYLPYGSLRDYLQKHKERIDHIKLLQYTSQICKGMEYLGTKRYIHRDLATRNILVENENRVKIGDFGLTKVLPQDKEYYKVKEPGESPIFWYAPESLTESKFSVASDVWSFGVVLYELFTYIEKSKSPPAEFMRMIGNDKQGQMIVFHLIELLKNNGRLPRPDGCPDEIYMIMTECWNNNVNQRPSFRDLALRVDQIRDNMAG
Excerpt: as §1

Another data set deals with EGFR (Homo sapiens, UniProt P00533). Description: Human kinase selectivity screening: EGFR. The conditions noted are these: read-out: EGFR pIC50 values (converted). The class given is biochemical.
Sequence of EGFR (P00533 25-1210): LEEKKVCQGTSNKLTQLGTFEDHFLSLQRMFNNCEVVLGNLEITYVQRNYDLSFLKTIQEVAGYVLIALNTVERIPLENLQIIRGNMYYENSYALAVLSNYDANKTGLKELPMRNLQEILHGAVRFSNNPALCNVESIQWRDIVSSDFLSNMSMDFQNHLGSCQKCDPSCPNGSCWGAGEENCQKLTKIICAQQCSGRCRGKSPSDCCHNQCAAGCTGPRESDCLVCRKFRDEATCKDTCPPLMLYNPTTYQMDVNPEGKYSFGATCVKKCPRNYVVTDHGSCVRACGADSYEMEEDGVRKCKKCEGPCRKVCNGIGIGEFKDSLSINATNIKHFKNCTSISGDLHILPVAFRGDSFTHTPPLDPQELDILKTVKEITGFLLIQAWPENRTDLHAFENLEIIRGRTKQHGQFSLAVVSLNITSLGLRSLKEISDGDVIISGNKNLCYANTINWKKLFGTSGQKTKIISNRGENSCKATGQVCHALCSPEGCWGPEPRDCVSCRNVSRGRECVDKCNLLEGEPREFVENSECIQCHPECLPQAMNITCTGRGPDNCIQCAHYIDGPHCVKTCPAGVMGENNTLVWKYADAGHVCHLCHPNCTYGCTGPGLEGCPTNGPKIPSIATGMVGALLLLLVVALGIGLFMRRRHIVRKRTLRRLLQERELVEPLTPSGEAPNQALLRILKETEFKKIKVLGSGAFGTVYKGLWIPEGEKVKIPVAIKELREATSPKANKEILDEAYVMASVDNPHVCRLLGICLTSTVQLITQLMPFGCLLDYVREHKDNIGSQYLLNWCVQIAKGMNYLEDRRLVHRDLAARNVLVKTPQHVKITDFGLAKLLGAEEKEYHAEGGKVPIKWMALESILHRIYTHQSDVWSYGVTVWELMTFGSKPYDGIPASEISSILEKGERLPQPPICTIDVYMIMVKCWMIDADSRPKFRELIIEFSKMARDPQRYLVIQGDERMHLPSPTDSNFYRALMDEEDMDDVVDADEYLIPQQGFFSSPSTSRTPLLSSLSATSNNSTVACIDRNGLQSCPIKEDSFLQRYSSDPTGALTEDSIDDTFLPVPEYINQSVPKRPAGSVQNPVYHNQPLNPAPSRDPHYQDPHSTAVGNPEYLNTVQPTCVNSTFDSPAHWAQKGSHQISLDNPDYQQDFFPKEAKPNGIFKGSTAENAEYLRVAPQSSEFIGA
Excerpt: as §1

The next data set deals with LRRK2 (Homo sapiens, UniProt Q5S007). Description: Human kinase selectivity screening: LRRK2. The class given is biochemical. The following applies: read-out: LRRK2 pIC50 values (converted).
Excerpt: as §1

Setting [3] is: CYP3A4, VR substrate, read-out: CYP3A4VR pXC50 (converted).
Where [4] appears, read: CYP3A4, VG substrate, read-out: CYP3A4VG pXC50 (converted).

Sequence of ROCK1 (Q13464 whole entry): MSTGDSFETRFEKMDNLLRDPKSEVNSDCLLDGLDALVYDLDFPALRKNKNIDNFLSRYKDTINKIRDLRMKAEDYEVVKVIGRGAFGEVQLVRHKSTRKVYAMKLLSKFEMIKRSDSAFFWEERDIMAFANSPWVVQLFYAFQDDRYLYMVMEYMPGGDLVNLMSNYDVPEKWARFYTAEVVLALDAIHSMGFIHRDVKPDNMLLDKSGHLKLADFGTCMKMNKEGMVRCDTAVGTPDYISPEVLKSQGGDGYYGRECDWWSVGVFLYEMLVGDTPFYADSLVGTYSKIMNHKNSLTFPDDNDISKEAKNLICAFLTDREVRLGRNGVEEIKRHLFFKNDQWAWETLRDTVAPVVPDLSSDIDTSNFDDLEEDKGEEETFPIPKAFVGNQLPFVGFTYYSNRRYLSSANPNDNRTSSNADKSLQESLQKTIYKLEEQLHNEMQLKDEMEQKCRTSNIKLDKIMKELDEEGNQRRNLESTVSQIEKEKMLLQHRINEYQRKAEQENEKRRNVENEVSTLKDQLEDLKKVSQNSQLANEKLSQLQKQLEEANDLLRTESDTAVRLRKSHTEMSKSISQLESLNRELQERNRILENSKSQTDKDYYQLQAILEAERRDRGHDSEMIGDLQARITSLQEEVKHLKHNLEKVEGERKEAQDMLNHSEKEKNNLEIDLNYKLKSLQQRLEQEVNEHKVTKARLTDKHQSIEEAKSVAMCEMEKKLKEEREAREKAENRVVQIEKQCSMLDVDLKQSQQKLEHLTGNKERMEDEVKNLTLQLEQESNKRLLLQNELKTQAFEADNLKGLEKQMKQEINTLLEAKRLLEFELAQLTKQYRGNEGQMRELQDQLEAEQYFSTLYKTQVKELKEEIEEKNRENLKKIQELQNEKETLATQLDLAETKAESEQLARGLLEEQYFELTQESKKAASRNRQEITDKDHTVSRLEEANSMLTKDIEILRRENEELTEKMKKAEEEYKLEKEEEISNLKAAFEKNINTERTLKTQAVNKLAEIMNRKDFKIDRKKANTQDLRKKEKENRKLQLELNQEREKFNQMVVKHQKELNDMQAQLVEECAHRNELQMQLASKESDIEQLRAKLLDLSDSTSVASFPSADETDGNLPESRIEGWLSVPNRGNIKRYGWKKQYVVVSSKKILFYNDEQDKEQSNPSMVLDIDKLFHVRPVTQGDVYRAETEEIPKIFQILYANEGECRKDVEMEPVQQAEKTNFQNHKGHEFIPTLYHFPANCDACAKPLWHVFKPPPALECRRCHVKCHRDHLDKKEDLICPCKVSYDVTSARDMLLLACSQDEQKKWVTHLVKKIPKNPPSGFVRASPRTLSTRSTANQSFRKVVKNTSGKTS
Sequence of Cytochrome P450 (CYP450) (P08684 2-503 limits assumed): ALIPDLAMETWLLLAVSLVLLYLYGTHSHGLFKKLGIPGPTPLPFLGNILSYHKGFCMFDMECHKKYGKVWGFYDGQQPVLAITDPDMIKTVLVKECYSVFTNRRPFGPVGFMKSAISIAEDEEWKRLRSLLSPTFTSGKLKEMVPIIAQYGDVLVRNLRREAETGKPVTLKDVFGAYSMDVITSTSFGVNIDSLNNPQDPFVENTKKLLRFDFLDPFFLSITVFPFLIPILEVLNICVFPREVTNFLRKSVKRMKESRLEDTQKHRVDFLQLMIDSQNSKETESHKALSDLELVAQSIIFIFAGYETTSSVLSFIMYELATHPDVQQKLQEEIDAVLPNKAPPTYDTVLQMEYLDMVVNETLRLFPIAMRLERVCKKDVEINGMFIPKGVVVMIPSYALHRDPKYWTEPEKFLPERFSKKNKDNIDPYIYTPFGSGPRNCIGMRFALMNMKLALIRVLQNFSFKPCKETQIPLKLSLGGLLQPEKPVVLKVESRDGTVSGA

A word on the Papp: it is the rate of passage across a membrane or cell layer, normalised by area and donor concentration. Higher therefore signals ready permeation. `CN(C)Cc1ccc(-c2[nH]c3ncc(C#N)cc3c2-c2ccccc2)cc1` [NEU-0001206]: in [1], the solubility kinetic at 1 h stood at 17 µM (≈ 5.99 µg/mL). This molecule also yielded a Papp at 3 h, 100 µM in data set [2] of 46 ×10⁻⁶ cm/s. This molecule also displayed a PFI in the data set “ChromlogD assay” of 7.88. Further, the IC50 at Cytochrome P450 (CYP450) (setting [3]) is more than 50.1 µM; against P38A, more than 25.1 µM; at JNK1, more than 25.1 µM; on ITK it was 0.0126 µM; at LCK it was 0.0501 µM; at IKK2, more than 25.1 µM. Also, the IC50 on ROCK1 is 12.6 µM; at AURB, 0.0398 µM; at PI3KA, more than 25.1 µM; on JAK2, 0.501 µM; at EGFR, 2.51 µM; at LRRK2, 0.126 µM.

Consider `CCCCc1nc(Nc2cccc(C)c2)c2c(=O)[nH]ccc2n1` [NEU-0001191], for which the solubility kinetic at 1 h in [1] stood at 22 µM (≈ 6.78 µg/mL). In “ChromlogD assay”, this molecule showed a PFI of 8.54. The IC50 at Cytochrome P450 (CYP450) (setting [4]) is 0.0794 µM; on Cytochrome P450 (CYP450) (setting [3]), 6.31 µM; on P38A, more than 25.1 µM; at JNK1, 2 µM; on ITK it was more than 25.1 µM; at LCK, more than 25.1 µM. Besides, the IC50 on IKK2 is more than 25.1 µM; at ROCK1, more than 25.1 µM; on AURB it was 0.158 µM; on PI3KA it was more than 25.1 µM; at JAK2, 0.251 µM; on EGFR it was more than 25.1 µM. The IC50 on LRRK2 is 0.0631 µM.

Take `CCCNc1nc(Nc2cnn(C)c2)c2c(=O)[nH]ccc2n1` [NEU-0001187]: the solubility kinetic at 1 h in data set [1] was determined as 252 µM (≈ 75.4 µg/mL). This molecule gave a Papp at 3 h, 100 µM in data set [2] of 33 ×10⁻⁶ cm/s. In “ChromlogD assay”, this molecule displayed a PFI of 5.43. Besides, the IC50 at Cytochrome P450 (CYP450) (setting [4]) is 3.98 µM; at Cytochrome P450 (CYP450) (setting [3]), more than 50.1 µM; at P38A, more than 25.1 µM; on JNK1, 0.501 µM; on ITK, 0.0631 µM; on LCK, 0.2 µM. In addition, the IC50 at IKK2 was 3.98 µM; at ROCK1, 1.26 µM; on AURB, 0.00794 µM; on PI3KA, more than 25.1 µM; on JAK2, 0.00398 µM; at EGFR, 1.26 µM. Moreover, the IC50 on LRRK2 was 0.0158 µM.

`Cc1cc(Nc2cc(C3CC3)[nH]n2)nc(N2CCCCC2)n1` [NEU-0001127]: the solubility kinetic at 1 h in [1] came out at 265 µM (≈ 79.1 µg/mL). The same molecule registered a Papp at 3 h, 100 µM in [2] of 38 ×10⁻⁶ cm/s. The PFI in “ChromlogD assay” is 6.13. Besides, the IC50 on Cytochrome P450 (CYP450) (setting [4]) was 10 µM; on Cytochrome P450 (CYP450) (setting [3]), more than 50.1 µM; against P38A it was more than 25.1 µM; on JNK1, 1 µM; on ITK, 1 µM; at LCK, 1 µM. Besides, the IC50 at IKK2 is more than 25.1 µM; at ROCK1, 20 µM; at AURB, 0.158 µM; on PI3KA, more than 25.1 µM; at JAK2, 0.398 µM; at EGFR it was more than 25.1 µM. Further, the IC50 at LRRK2 is 3.98 µM.

Take `O=S1(=O)Cc2ccc(Nc3nccc(-c4ccc(F)cc4)n3)cc2C1` [NEU-0001142]: the solubility kinetic at 1 h in [1] was 1 µM (≈ 0.355 µg/mL). Moreover, the Papp at 3 h, 100 µM in [2] was determined as 7.7 ×10⁻⁶ cm/s. The same molecule showed a PFI in “ChromlogD assay” of 7.11. Also, the IC50 on Cytochrome P450 (CYP450) (setting [4]) is 2.51 µM; on Cytochrome P450 (CYP450) (setting [3]) it was 10 µM; at P38A, 25.1 µM; at JNK1 it was 0.2 µM; on ITK, more than 25.1 µM; at LCK it was 2.51 µM. For the same molecule, the IC50 on IKK2 is 0.501 µM; on ROCK1, more than 25.1 µM; on AURB it was 0.0631 µM; on PI3KA, more than 25.1 µM; on JAK2, 0.0501 µM; at EGFR it was more than 25.1 µM. In addition, at LRRK2, the IC50 was 0.0398 µM.

Take `O=C(Nc1ccc(-c2ccnc3[nH]ccc23)s1)C1(Cc2ccccc2)CCCNC1` (centres unmarked) [NEU-0001240]: the solubility kinetic at 1 h in data set [1] was determined as 107 µM (≈ 44.6 µg/mL). This molecule came in with a Papp at 3 h, 100 µM in data set [2] of 18 ×10⁻⁶ cm/s. In addition, in “ChromlogD assay”, the PFI is recorded as 7.26. Also, the IC50 at Cytochrome P450 (CYP450) (setting [4]) is 1.26 µM; at Cytochrome P450 (CYP450) (setting [3]), 1.58 µM; against P38A, more than 25.1 µM; on JNK1, more than 25.1 µM; on ITK, 0.316 µM; on LCK, 1.58 µM. Moreover, the IC50 on IKK2 was 0.501 µM; on ROCK1, 0.00631 µM; on AURB it was 0.000501 µM; on PI3KA, more than 25.1 µM; on JAK2, 0.501 µM; at EGFR it was more than 25.1 µM. The IC50 at LRRK2 is 0.316 µM.

For `Cn1cc(-c2cnc3[nH]cc(-c4cccc(C#N)c4)c3c2)cn1` [NEU-0001207], the solubility kinetic at 1 h in [1] turned out to be 12 µM (≈ 3.59 µg/mL). The molecule also yielded a Papp at 3 h, 100 µM in data set [2] of 23 ×10⁻⁶ cm/s. Further, the PFI in the data set “ChromlogD assay” is on record as 7.84. In addition, the IC50 was 1.26 µM at Cytochrome P450 (CYP450) (setting [4]); 20 µM on Cytochrome P450 (CYP450) (setting [3]); more than 25.1 µM against P38A; 0.501 µM at JNK1; 1 µM at ITK; 2.51 µM at LCK. Further, the IC50 on IKK2 was 2 µM; at ROCK1 it was 0.794 µM; on AURB, 1.26 µM; at PI3KA it was 3.98 µM; at JAK2, 0.794 µM; at EGFR, 5.01 µM. Also, the IC50 on LRRK2 is 0.0794 µM.

The record behind these values is paper PMC4207660, “Identification and Characterization of Hundreds of Potent and Selective Inhibitors of Trypanosoma brucei Growth from a Kinase-Targeted Library Screening Campaign” (PLoS Neglected Tropical Diseases, 2014).
